One assay concerns MMP. Kind of assay: MMP inhibitory activity, comparison in words. It is filed as biochemical.
The target in assay [1] is T1, MMP-9 (Homo sapiens, UniProt P14780).
T1 construct: from tissue; host or cells: human polymorphonuclear leukocytes (PMN) from whole blood (New York Blood Center), PMA-stimulated supernatant
Kind of assay: Thiopeptilide MMP-9 Inhibition Assay. Format: biochemical. As to conditions: for inhibition at 5 µM: read-out: MMP-9: Thiopep. % inhibition.

In assay [2] the target is T2, MMP-2 (Homo sapiens, UniProt P08253).
T2 sequence (P08253 110-660): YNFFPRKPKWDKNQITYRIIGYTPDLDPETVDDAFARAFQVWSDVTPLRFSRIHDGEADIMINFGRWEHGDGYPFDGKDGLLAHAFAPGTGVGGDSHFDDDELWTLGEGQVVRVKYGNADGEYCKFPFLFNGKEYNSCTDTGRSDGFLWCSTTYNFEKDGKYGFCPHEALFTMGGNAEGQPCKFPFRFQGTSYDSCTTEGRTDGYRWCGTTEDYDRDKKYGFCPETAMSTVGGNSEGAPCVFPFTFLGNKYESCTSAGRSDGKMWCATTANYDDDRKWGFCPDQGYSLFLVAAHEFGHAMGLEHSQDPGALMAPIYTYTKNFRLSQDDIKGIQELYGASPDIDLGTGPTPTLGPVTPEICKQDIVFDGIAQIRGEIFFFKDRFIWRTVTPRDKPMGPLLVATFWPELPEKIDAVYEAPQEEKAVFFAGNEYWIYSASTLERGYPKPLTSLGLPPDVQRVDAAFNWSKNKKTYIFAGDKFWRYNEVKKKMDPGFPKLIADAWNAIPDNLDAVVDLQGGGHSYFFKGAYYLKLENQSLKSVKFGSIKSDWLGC
The assay is described as follows: Secondary P218 Quenched fluorescence Assay for MMP-2 Inhibition. Format: biochemical. The settings on record: P218 substrate, 0.2 nM enzyme; x (n) = average of n determinations; read-out: MMP-2 Fluorogenic IC50.

The next assay deals with inflammation. The settings on record: R. G. Child et al. 1977; cited from earlier work.
For assay [3], the target named is T1, MMP-9. Kind of assay: Automated MMP Profiling Assay, MMP-9 fluorogenic. It is filed as biochemical. As to conditions: 96-well automated, P218.
The test system of another assay is Femoral Lesion. The assay is described as follows: Inhibition of Cartilage Lesions in a Guinea Pig Model of Osteoarthritis. Format: in vivo. As to conditions: 15 mg/kg oral gavage daily, 33 days, vs vehicle. The procedure: Pathol. 1987 24, 444-448. Seven of the invention compounds were dissolved at 15 mg/ml in a vehicle of 10 mg/ml Tween 80, 190 mg/ml PEG and 0.44 mg/ml ethanolamine. This concentrate was diluted 1:1 with water before dosing (final concentration 7.5 mg/ml). On the 5th day before surgery, each animal received either a test compound plus vehicle or vehicle only administered by oral gavage each day at 15 mg/kg (2 ml/kg) up to surgery and then for four weeks post surgery (total 33 days of dosing). At the beginning of dosing and twice weekly thereafter the animals were weighed and the dose of the respective compounds or vehicles were calculated and adjusted if necessary. At the conclusion of the study the animals were euthanized by CO2 asphyxiation and their stifles removed, partially dissected and placed in 10% neutral buffered formalin. The extent of lesion development on the femoral head was measured by computer assisted surface area analysis.

Assay [4] has as its target T3, MMP-3 (Homo sapiens, UniProt P08254).
T3 construct: Truncated Prostromelysin-257 was expressed in a soluble form in E.coli; made in house; host or cells: E. coli
The assay is described as follows: Automated MMP Profiling Assay, MMP-3 fluorogenic. Format: biochemical. As to conditions: 96-well automated, P218. The text has this: This assay with each invention compound was run with the three enzymes MMP-3, MMP-9 and MMP-2 in parallel as adapted for a 96-well microtitre plate using a Hamilton A® workstation.

Assay [5] addresses T2, MMP-2. The assay is described as follows: Automated MMP Profiling Assay, MMP-2 fluorogenic. The settings on record: 96-well automated, P218; read-out: MMP-2 Fluorogenic IC50 (profiling). Format: biochemical.
In assay [6] the target is T3, MMP-3. Kind of assay: Secondary P218 Quenched fluorescence Assay for MMP-3 Inhibition. It is filed as biochemical. The settings on record: P218 substrate, pH 6.5, 25° C.; x (n) = average of n determinations; read-out: MMP-3 Fluorogenic IC50. The procedure:
Truncated Prostromelysin-257 was expressed in a soluble form in E.coli as described by Marcy et al., Biochemistry, 30, 6476-6483, 1991. Soluble truncated prostromelysin was purified by a modification of the monoclonal antibody affinity chromatography method described by Housley et al., J. Biol. Chem., 268, 4481-87, 1993.
The assay is run continuously in a 3.0 ml cuvette using a Perkin-Elmer LS 50 B Spectrofluorimeter at 25° C. in a final volume of 2.0 mls. P218 substrate (10 mM) in 100% DMSO is diluted to a final concentration of 2.0 micromolar (μM) into assay buffer: 50 mM MES, pH 6.5 containing 150 mM NaCl, 10 mM CaCl2, 0.005% Brij-35, and 1%(v/v) DMSO. Test compounds(10 mM) in DMSO are diluted in assay buffer at an initial concentration of 10 to 100 micromolar. […] The reaction is initiated by the addition of recombinant stromelysin (MMP-3) at a final concentration of 1.0 nM. Upon peptide cleavage, the fluorescent MCA group was detected using an excitation wavelength of 328 nanometers and an emission wavelength of 393 nanometers.

Assay [7] deals with T3, MMP-3. Kind of assay: Primary Thiopeptilide MMP-3 Inhibition Assay. Format: biochemical.
Description: Enzyme: recombinant stromelysin expressed in E.coli and purified as described above. […] The protocols for the assay of compounds as stromelysin inhibitors was the same as that used for MMP-9 except that the assay buffer was 50 mM MES, pH 6.5 containing 150 mM NaCl, 10 mM CaCl2, 0.005% Brij, and 1% DMSO.
The test system of assay [8] is human ovarian carcinoma xenografts. As to conditions: mouse, in vivo; cited from earlier work.
Another assay concerns human colon tumor. The settings on record: intraperitoneally; cited from earlier work.

pIC50: −log10 of the molar value. Like-named read-outs stand apart in the source and are kept apart here.

Usually inhibition stands for the change of the read-out against control, counted positive when it falls. The pIC50 is −log10 of the IC50, conventionally taken in molar units.

T3 sequence (P08254 100-274 limits assumed): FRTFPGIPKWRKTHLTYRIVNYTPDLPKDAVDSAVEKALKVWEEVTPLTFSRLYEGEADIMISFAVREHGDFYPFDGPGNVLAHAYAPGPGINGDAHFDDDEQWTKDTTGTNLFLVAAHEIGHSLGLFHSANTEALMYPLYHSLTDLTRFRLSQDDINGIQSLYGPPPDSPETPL
T1 sequence (P14780 107-707 limits assumed): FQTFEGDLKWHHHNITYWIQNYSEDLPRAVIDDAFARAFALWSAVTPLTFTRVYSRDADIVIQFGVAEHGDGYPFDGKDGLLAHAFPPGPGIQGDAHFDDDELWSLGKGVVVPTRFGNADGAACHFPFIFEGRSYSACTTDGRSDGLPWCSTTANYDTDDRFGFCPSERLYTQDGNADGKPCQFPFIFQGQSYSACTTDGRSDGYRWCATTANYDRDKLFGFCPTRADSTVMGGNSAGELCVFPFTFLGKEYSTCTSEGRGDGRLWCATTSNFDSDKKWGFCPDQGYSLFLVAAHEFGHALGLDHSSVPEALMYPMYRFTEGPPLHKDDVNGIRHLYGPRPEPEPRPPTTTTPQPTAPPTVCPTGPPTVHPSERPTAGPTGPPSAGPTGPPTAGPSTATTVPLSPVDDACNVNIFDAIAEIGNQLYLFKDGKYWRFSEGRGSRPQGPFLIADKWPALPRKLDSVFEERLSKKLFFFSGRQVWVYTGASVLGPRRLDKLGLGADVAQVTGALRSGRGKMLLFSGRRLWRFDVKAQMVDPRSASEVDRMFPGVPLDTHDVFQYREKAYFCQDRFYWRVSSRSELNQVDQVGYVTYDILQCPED

`O=C(O)CCC(=O)c1ccc(-c2ccccc2)cc1` [fenbufen, 3-biphenoylpropanoic acid, reference compound]: the “MMP inhibitory activity (in words)” value with MMP is reported as “Only minor activity, at best”. Also, on MMP-9 [1], the inhibition at 5 µM was determined as 2%. Besides, the pIC50 on MMP-2 [2] is 6.00.

As for `CC(CC(=O)c1ccc(-c2ccccc2)cc1)C(=O)O` (centres unmarked) [XLVIII], the “anti-inflammatory activity (literature)” value with inflammation is “inactive”.

With `CCN(CC)C(=O)c1cccc(CC[C@@H](CC(=O)c2ccc(-c3ccc(Cl)cc3)cc2)C(=O)O)c1` [Example 145, 4-[4-(4-chlorophenyl)phenyl]-4-oxo-2S-[2-(3-N,N-diethylcarbamoyl)phenyl]butanoic acid], the negative-log IC50 (pIC50) against MMP-9 [3] was 7.72; against MMP-3 [4], 8.12; on MMP-2 [5] it was 8.68. Besides, in the assay with Femoral Lesion, the “% Inhibition of Femoral Lesion Surface Area” value (shortened to “% Inhibition”) came to 46.4%.

On to `O=C(CC(C(=O)O)c1ccccc1)c1ccc(-c2ccccc2)cc1` (centres unmarked) [XLIV], for which the “anti-inflammatory activity (literature)” value with inflammation was “inactive”.

Consider `O=C(CC(CCCc1ccccc1)C(=O)O)c1ccc(-c2ccccc2)cc1` (centres unmarked) [Example 135], for which the negative logarithm of the IC50 (pIC50) was 5.55 on MMP-3 [6] and 5.55 on MMP-3 [7] (pH 6.5, 13 nM stromelysin, x (n) = average of n determinations, read-out: MMP-3 Thiopep. IC50). Moreover, in the assay with MMP, the “MMP inhibitory activity (in words)” value was “low potency”.

With `COC(=O)c1ccccc1S[C@H]1CC[C@H](C(=O)c2ccc(-c3ccc(Cl)cc3)cc2)[C@H]1C(=O)O` [Example 299, (1S,2S,5S)-trans-5-[4-(4-chlorophenyl)phenylcarbonyl]-cis-2-(2-methoxycarbonylphenylthio)cyclopentanecarboxylic acid], the negative logarithm of the IC50 (pIC50) at MMP-9 [3] was 6.27; against MMP-3 [4] it was 7.24; on MMP-2 [5], 7.28. Besides, the “% Inhibition” value in the assay with Femoral Lesion is on record as 28%.

On to `O=C(O)CC(C(=O)c1ccc(-c2ccccc2)cc1)c1ccccc1` (centres unmarked) [LXXVII], for which the “anti-inflammatory activity (literature)” value with inflammation is “inactive”.

With `O=C(C[C@H](CCCc1ccccc1)C(=O)O)c1ccc(-c2ccc(Cl)cc2)cc1` [Example 116, 4-[4-(4-chlorophenyl)phenyl]-4-oxo-2S-(3-phenylpropyl)butanoic acid], the negative logarithm of the IC50 (pIC50) against MMP-9 [3] is 6.73; on MMP-3 [4] it was 6.86; on MMP-2 [5] it was 7.42. The “% Inhibition” value in the assay on Femoral Lesion stood at 0%.

With `CCCCCOc1ccc(-c2ccc(C(=O)C[C@H](CCCc3ccccc3)C(=O)O)cc2)cc1` [Example 86, 4-[4-(4-pentyloxyphenyl)phenyl]-4-oxo-2S-(3-phenylpropyl)butanoic acid], the pIC50 was 6.35 against MMP-9 [3], 7.29 against MMP-3 [4] and 7.90 at MMP-2 [5]. The “% Inhibition” value in the assay with Femoral Lesion turned out to be 0%.

Turning to `O=C(C[C@H](CSc1ccccc1)C(=O)O)c1ccc(-c2ccc(Cl)cc2)cc1` [Example 197, 4-[4-(4-chlorophenyl)phenyl]-4-oxo-2S-(phenylthiomethyl)butanoic acid], the “% Inhibition” value with Femoral Lesion is given as 18%. Further, the negative-log IC50 (pIC50) at MMP-9 [1] (pH 6.5, x (n) = average of n determinations, read-out: MMP-9: Thiopep. IC50) is 6.71; on MMP-2 [5], 7.66; at MMP-2 [2], 7.59.

Consider `O=C(O)[C@H]1[C@H](CN2C(=O)c3ccccc3C2=O)CC[C@@H]1C(=O)c1ccc(-c2ccc(Cl)cc2)cc1` [Example 361, (1S,2R,5S)-trans-5-[4-(4-chlorophenyl)phenylcarbonyl]-trans-2-phthalimidomethylcyclopentanecarboxylic acid], for which the negative logarithm of the IC50 (pIC50) at MMP-9 [3] is 9.30; against MMP-3 [4], 8.52; on MMP-2 [5] it was 9.09. For the same compound, the “MMP inhibitory activity (in words)” value in the assay on MMP was “most active”.

In the case of `O=C(C[C@@H](CCN1C(=O)c2ccccc2C1=O)C(=O)O)c1ccc(-c2ccc(Cl)cc2)cc1` [Example 269, 4-[4-(4-chlorophenyl)phenyl]-4-oxo-2R-(2-phthalimidoethyl)butanoic acid], the results for the pIC50 against MMP-9 [3], against MMP-3 [4] and on MMP-2 [5] were 6.71, 5.99 and 6.78, respectively. Further, in the assay with MMP, the “MMP inhibitory activity (in words)” value is reported as “less active”.

`O=C(O)[C@@H]1[C@@H](C(=O)c2ccc(-c3ccc(Cl)cc3)cc2)CC[C@H]1Sc1ccccc1` [Example 296, (1S,2R,5S)-trans-5-[4-(4-chlorophenyl)phenylcarbonyl]-trans-2-phenylthiocyclopentanecarboxylic acid]: the figures for the negative-log IC50 (pIC50) against MMP-9 [3], on MMP-3 [4] and at MMP-2 [5] were 6.95, 7.36 and 8.19, respectively. Further, the “% Inhibition” value in the assay with Femoral Lesion is listed as 31%.

Turning to `CC(=O)SC(CC(=O)c1ccc(Oc2ccc(Cl)cc2)cc1)C(=O)O` (stereo not drawn) [Example 254, Benzenebutanoic acid, α-(acetylthio)-4-(4-chlorophenoxy)-γ-oxo-, reference compound], the “MMP inhibitory activity (in words)” value with MMP is “very low potency”. The inhibition at 5 µM is 27% at MMP-9 [1] (at 5 μM) and 10% on MMP-3 [7] (at 5 μM, read-out: MMP-3 Thiopep. % inhibition).

For the compound `O=C(C[C@H](CCCc1ccccc1)C(=O)O)c1ccc(-c2ccc(OCc3ccccc3)cc2)cc1` [Example 100, 4-[4-(4-benzyloxyphenyl)phenyl]-4-oxo-2S-(3-phenylpropyl)butanoic acid], the negative-log IC50 (pIC50) against MMP-9 [3] is 5.49; at MMP-3 [4], 7.77; at MMP-2 [5], 7.85. Moreover, the “% Inhibition” value in the assay with Femoral Lesion worked out at 37.8%.

As for `CNC(=O)[C@H](Cc1ccccc1)NC(=O)[C@H](CC(C)C)[C@H](CSc1cccs1)C(=O)NO` [batimastat], in [8], the “survival of mice bearing human ovarian carcinoma xenografts” value is given as “prolongs the survival”. Further, the “human colon tumor growth and spread” value in the assay with human colon tumor was “inhibits human colon tumor growth and spread”.

Consider `O=C(C[C@H](CCN1C(=O)c2ccccc2C1=O)C(=O)O)c1ccc(-c2ccc(Cl)cc2)cc1` [Example 268, 4-[4-(4-chlorophenyl)phenyl]-4-oxo-2S-(2-phthalimidoethyl)butanoic acid], for which the pIC50 was 8.94 at MMP-9 [3], 8.24 against MMP-3 [4] and 9.04 on MMP-2 [5]. Moreover, in the assay with Femoral Lesion, the “% Inhibition” value stood at 53%. Further, the “MMP inhibitory activity (in words)” value in the assay with MMP was “most active”.

With `O=C(O)[C@@H]1[C@@H](CN2C(=O)c3ccccc3C2=O)CC[C@H]1C(=O)c1ccc(-c2ccc(Cl)cc2)cc1` [Example 362, (1R,2S,5R)-trans-5-[4-(4-chlorophenyl)phenylcarbonyl]-trans-2-phthalimidomethylcyclopentanecarboxylic acid], the negative logarithm of the IC50 (pIC50) against MMP-9 [3] was 7.00; at MMP-3 [4], 6.37; on MMP-2 [5] it was 6.74. The “MMP inhibitory activity (in words)” value with MMP is on record as “less active”.

The values above are taken from patent US5789434A, “Derivatives of substituted 4-biarylbutyric acid as matrix metalloprotease inhibitors” (priority 1995, dated 1998).
